Measured values published in patent EP3212201B1, “NUCLEOSIDE KINASE INHIBITORS” (BCI Pharma, priority 2014, dated 2016).

What was measured:
Assay in all cases: FRET-based coupled-enzyme protein kinase inhibition assay
Format in all cases: biochemical
Conditions in all cases: compound at 10 µM, 1% DMSO
MAPK8 (JNK1) = MAPK8 (JNK1) (Homo sapiens, UniProt P45983)
Method in brief: (§1)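 FRET peptide (coumarin donor, fluorescein acceptor) was phosphorylated by each kinase in 50 mM HEPES pH 7.5, 10 mM MgCl2, 1 mM EDTA, 0.01% BRIJ-35 for 60 min at room temperature. ATP was at apparent Km, compounds in 1% DMSO. Protease development reagent then cleaved non-phosphorylated peptide over 60 min.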

EGFR (ErbB1) = EGFR (ErbB1) (Homo sapiens, UniProt P00533)
Sequence of EGFR (ErbB1) (P00533 25-1210, species assumed): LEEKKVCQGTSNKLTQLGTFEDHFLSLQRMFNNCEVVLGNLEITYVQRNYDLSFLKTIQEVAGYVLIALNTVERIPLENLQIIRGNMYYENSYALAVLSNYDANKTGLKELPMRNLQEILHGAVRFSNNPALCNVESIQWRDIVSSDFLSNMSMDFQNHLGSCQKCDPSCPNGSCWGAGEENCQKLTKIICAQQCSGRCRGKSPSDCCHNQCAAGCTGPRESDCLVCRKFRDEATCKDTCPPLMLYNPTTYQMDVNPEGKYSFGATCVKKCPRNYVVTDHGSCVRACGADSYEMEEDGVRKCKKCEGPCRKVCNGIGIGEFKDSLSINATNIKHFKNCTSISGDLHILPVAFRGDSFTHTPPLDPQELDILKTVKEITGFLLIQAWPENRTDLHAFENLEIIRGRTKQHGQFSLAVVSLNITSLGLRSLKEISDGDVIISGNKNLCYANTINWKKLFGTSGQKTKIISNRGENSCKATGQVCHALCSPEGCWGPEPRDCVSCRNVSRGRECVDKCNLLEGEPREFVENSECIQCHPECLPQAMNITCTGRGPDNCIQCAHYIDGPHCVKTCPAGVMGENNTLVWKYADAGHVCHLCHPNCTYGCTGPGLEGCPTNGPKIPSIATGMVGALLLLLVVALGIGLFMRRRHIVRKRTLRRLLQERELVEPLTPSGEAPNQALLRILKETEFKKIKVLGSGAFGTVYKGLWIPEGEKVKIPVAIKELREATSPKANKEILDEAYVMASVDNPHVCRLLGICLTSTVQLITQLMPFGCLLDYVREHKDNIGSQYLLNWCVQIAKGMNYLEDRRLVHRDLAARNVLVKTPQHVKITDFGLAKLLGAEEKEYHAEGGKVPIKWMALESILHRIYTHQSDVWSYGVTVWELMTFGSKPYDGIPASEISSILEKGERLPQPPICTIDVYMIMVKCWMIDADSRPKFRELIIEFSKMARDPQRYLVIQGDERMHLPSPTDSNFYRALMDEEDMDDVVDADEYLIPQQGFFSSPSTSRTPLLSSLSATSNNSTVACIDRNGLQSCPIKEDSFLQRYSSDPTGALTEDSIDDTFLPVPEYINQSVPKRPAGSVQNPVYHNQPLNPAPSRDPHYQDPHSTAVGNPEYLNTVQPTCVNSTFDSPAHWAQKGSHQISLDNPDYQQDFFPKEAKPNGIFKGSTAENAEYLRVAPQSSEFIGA
Method in brief: as §1

MAP2K1 (MEK1) = MAP2K1 (MEK1) (Homo sapiens, UniProt Q02750)
Sequence of MAP2K1 (MEK1) (Q02750 whole entry, species assumed): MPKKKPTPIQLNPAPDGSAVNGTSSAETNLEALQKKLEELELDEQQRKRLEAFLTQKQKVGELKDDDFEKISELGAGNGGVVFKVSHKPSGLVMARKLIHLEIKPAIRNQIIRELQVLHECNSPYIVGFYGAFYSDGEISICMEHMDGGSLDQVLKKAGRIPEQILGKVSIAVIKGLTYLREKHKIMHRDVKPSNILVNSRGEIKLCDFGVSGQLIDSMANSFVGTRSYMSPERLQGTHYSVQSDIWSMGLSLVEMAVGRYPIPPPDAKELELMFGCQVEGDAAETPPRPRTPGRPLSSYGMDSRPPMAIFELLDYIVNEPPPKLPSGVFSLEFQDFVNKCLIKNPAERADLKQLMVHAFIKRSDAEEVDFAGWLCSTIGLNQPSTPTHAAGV
Method in brief: as §1

GSK3B (GSK3 beta) = GSK3B (GSK3 beta) (Homo sapiens, UniProt P49841)
Method in brief: as §1

ACVR1B (ALK4) = molecular target: T1, ACVR1B (ALK4) (Homo sapiens, UniProt P36896)
T1 sequence (P36896 24-505): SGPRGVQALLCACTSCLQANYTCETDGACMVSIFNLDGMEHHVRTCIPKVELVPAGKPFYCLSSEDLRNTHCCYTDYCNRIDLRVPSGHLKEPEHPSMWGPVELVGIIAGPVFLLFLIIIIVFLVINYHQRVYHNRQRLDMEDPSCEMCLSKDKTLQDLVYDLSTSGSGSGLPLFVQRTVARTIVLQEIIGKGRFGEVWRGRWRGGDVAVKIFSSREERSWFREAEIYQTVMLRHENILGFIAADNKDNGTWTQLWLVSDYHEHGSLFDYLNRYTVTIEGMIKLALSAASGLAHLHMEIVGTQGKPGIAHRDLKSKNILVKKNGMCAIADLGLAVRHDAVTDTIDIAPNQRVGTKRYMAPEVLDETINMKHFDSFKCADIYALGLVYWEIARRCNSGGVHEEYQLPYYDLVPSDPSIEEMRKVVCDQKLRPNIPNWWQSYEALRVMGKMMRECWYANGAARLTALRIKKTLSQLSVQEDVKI
Method in brief: as §1

ROCK1 = ROCK1 (Homo sapiens, UniProt Q13464)
Method in brief: as §1

ERBB2 (HER2) = ERBB2 (HER2) (Homo sapiens, UniProt P04626)
Method in brief: as §1

SRC = SRC (Homo sapiens, UniProt P12931)
Method in brief: as §1

MAPK3 (ERK1) = MAPK3 (ERK1) (Homo sapiens, UniProt P27361)
Sequence of MAPK3 (ERK1) (P27361 whole entry, species assumed): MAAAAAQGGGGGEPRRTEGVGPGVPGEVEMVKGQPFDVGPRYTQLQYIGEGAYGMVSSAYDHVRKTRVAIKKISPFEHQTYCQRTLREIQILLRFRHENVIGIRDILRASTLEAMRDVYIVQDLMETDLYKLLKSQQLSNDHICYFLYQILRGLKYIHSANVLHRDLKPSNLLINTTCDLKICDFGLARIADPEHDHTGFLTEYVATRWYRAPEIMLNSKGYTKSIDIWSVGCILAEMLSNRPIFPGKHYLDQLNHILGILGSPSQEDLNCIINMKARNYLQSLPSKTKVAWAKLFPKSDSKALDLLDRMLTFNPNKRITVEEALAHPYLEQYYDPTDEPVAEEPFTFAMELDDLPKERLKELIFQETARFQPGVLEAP
Method in brief: as §1

PDGFRB (PDGFR beta) = PDGFRB (PDGFR beta) (Homo sapiens, UniProt P09619)
Method in brief: as §1

BTK = BTK (Homo sapiens, UniProt Q06187)
Sequence of BTK (Q06187 whole entry, species assumed): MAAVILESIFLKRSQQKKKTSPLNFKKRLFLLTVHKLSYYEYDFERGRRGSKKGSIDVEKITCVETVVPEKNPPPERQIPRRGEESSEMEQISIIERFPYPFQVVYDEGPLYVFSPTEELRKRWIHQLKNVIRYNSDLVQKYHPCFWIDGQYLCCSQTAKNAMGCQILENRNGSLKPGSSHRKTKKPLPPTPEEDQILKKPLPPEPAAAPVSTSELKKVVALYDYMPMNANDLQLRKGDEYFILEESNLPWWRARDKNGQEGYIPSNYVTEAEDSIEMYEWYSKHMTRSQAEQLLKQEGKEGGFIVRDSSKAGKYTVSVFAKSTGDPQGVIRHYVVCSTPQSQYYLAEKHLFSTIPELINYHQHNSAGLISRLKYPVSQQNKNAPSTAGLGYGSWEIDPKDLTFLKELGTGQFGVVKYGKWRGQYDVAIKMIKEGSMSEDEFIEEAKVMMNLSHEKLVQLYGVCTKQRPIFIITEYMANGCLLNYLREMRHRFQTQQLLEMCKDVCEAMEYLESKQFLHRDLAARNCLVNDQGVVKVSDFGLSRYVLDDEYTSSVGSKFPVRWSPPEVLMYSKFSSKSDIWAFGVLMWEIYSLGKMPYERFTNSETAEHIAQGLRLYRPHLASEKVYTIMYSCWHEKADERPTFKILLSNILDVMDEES
Method in brief: as §1

TEK (Tie2) = TEK (Tie2) (Homo sapiens, UniProt Q02763)
Sequence of TEK (Tie2) (Q02763 23-1124, species assumed): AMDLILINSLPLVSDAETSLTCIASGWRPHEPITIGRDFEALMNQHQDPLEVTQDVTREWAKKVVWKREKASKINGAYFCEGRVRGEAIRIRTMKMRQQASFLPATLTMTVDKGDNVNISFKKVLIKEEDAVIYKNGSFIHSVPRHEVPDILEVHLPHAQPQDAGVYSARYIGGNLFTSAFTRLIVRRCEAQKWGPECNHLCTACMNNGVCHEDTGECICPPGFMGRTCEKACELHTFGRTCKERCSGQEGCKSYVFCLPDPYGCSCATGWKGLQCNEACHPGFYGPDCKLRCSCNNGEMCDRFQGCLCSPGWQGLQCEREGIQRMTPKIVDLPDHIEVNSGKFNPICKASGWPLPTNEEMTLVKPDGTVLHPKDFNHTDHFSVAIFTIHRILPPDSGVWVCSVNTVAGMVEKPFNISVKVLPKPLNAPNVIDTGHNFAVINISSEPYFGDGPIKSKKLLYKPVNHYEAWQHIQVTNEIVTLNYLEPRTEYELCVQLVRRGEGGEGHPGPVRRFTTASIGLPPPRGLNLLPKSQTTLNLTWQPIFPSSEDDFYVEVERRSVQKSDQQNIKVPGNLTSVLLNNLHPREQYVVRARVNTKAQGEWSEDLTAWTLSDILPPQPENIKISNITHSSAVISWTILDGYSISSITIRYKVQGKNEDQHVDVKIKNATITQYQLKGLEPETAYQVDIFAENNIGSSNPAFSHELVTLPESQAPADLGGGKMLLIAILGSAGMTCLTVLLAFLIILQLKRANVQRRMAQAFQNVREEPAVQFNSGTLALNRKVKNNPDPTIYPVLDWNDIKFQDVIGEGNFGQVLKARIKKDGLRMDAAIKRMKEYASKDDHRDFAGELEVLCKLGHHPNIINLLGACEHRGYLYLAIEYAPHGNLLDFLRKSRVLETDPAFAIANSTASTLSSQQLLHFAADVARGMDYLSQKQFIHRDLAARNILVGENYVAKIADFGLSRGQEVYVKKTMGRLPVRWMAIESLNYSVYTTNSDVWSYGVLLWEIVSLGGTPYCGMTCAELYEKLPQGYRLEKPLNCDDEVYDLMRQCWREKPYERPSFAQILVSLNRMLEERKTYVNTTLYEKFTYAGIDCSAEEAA
Method in brief: as §1

PHKG2 = molecular target: T2, PHKG2 (Homo sapiens, UniProt P15735)
T2 sequence (P15735 1-406): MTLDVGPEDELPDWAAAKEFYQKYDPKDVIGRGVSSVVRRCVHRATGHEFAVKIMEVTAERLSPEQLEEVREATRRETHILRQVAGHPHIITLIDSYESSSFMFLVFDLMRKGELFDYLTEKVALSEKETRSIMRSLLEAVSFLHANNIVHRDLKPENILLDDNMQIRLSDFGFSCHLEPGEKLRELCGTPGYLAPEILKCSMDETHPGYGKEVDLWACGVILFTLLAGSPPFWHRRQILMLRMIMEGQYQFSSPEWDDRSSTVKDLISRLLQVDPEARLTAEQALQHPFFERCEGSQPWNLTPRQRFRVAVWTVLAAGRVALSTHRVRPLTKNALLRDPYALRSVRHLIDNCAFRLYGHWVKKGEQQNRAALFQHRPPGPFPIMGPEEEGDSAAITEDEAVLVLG
Method in brief: as §1

RPS6KB1 (p70S6K) = RPS6KB1 (p70S6K) (Homo sapiens, UniProt P23443)
Sequence of RPS6KB1 (p70S6K) (P23443 whole entry, species assumed): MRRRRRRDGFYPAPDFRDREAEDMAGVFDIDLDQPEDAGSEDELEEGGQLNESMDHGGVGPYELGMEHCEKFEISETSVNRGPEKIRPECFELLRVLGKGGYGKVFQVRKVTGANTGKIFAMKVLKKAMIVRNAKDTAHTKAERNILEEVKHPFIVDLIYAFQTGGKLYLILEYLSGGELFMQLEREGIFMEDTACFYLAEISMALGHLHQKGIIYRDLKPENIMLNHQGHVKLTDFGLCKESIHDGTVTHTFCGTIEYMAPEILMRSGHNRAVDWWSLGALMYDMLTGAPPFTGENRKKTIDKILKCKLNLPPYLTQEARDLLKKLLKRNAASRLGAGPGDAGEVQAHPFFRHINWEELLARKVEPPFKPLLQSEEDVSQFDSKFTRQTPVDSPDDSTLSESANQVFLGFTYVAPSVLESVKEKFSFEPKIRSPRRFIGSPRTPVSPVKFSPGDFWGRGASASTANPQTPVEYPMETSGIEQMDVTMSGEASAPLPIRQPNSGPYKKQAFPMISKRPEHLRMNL
Method in brief: as §1

Sequence of MAPK8 (JNK1) (P45983 whole entry, species assumed): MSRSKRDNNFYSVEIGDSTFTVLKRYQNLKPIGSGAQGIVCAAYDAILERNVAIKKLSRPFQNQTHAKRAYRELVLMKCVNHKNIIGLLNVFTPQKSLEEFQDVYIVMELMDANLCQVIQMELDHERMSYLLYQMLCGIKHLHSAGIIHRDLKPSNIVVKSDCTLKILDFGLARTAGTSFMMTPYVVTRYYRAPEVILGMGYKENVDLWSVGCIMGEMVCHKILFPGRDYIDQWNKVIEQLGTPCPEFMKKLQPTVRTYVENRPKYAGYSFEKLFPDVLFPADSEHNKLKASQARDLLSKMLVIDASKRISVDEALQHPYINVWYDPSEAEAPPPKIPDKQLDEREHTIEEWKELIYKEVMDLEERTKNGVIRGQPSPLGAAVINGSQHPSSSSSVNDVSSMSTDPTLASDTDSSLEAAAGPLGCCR

Row | SMILES | inhibition at 10 µM (MAPK8 (JNK1)) [%] | inhibition at 10 µM (EGFR (ErbB1)) [%] | inhibition at 10 µM (MAP2K1 (MEK1)) [%] | inhibition at 10 µM (GSK3B (GSK3 beta)) [%] | inhibition at 10 µM (ACVR1B (ALK4)) [%] | inhibition at 10 µM (ROCK1) [%] | inhibition at 10 µM (ERBB2 (HER2)) [%] | inhibition at 10 µM (SRC) [%] | inhibition at 10 µM (MAPK3 (ERK1)) [%] | inhibition at 10 µM (PDGFRB (PDGFR beta)) [%] | inhibition at 10 µM (BTK) [%] | inhibition at 10 µM (TEK (Tie2)) [%] | inhibition at 10 µM (PHKG2) [%] | inhibition at 10 µM (RPS6KB1 (p70S6K)) [%]
1 | Nc1ncnc2c1ncn2[C@@H]1O[C@H](COC(=O)NCCCc2nc3ccccc3[nH]2)[C@@H](O)[C@H]1O [Compound C1] | 12 | 34 | 11 | 7 | 2 | 18 | 5 | 46 | 5 | 1 | 9 | 3 | -3 | 15
2 | C[C@@H](NC(=O)OC[C@H]1O[C@@H](n2cnc3c(N)ncnc32)[C@H](O)[C@@H]1O)c1ccc(Cl)cc1 [Compound C4] | 14 | 22 | 4 | 8 | 1 | -7 | 2 | 33 | 6 | 5 | 2 | 12 | -2 | 22
3 | Nc1ncnc2c1ncn2[C@@H]1O[C@H](COC(=O)NC[C@H](O)CO)[C@@H](O)[C@H]1O [Compound C8] | 13 | 14 | 10 | 21 | 0 | 2 | -7 | -13 | 12 | 5 | 4 | -3 | -3 | 11
4 | Nc1ncnc2c1ncn2[C@@H]1O[C@H](COC(=O)N2CCC[C@H]2CO)[C@@H](O)[C@H]1O [Compound C9] | 3 | -2 | -3 | -6 | -5 | -10 | -19 | 16 | 5 | -1 | 9 | -4 | -4 | 3
5 | Nc1ncnc2c1ncn2[C@@H]1O[C@H](COC(=O)N[C@@H]2CCN(Cc3ccccc3)C2)[C@@H](O)[C@H]1O [Compound C10] | 6 | 27 | 0 | 8 | 4 | -2 | -5 | 25 | 5 | 7 | 7 | 6 | 0 | 5

Second part, the compound after the results:

Row | inhibition at 10 µM (MAPK8 (JNK1)) [%] | inhibition at 10 µM (EGFR (ErbB1)) [%] | inhibition at 10 µM (MAP2K1 (MEK1)) [%] | inhibition at 10 µM (GSK3B (GSK3 beta)) [%] | inhibition at 10 µM (ACVR1B (ALK4)) [%] | inhibition at 10 µM (ROCK1) [%] | inhibition at 10 µM (ERBB2 (HER2)) [%] | inhibition at 10 µM (SRC) [%] | inhibition at 10 µM (MAPK3 (ERK1)) [%] | inhibition at 10 µM (PDGFRB (PDGFR beta)) [%] | inhibition at 10 µM (BTK) [%] | inhibition at 10 µM (TEK (Tie2)) [%] | inhibition at 10 µM (PHKG2) [%] | inhibition at 10 µM (RPS6KB1 (p70S6K)) [%] | SMILES
6 | 2 | 8 | 1 | 4 | 7 | -7 | 3 | 29 | 5 | 6 | 9 | 5 | 0 | 10 | Nc1ncnc2c1ncn2[C@@H]1O[C@H](COC(=O)N2CCN(Cc3ccccc3)CC2CO)[C@@H](O)[C@H]1O (some centres unmarked) [Compound C13]
7 | 0 | 17 | -2 | 6 | 6 | 2 | -7 | -1 | 4 | 6 | -1 | 6 | -3 | 3 | CC(C)N1CCC(NC(=O)OC[C@H]2O[C@@H](n3cnc4c(N)ncnc43)[C@H](O)[C@@H]2O)CC1 [Compound C19]
8 | 5 | 11 | -3 | 3 | 3 | -7 | -9 | 12 | 1 | 4 | -1 | 0 | -6 | 0 | Nc1ncnc2c1ncn2[C@@H]1O[C@H](COC(=O)NCCN2CCCC2=O)[C@@H](O)[C@H]1O [Compound C22]
9 | 8 | 13 | 4 | 6 | 0 | -12 | 8 | 29 | 8 | 1 | 0 | -4 | -1 | 8 | Nc1ncnc2c1ncn2[C@@H]1O[C@H](COC(=O)N2CCN(CCc3ccccc3)CC2)[C@@H](O)[C@H]1O [Compound C26]
10 | -2 | 14 | -1 | 5 | 6 | -3 | -14 | 17 | 2 | 1 | 0 | 0 | 0 | 14 | CN1CCN(CCNC(=O)OC[C@H]2O[C@@H](n3cnc4c(N)ncnc43)[C@H](O)[C@@H]2O)CC1 [Compound C46]
11 | 6 | 31 | -1 | 1 | 1 | -1 | 11 | 38 | -2 | 4 | 11 | 4 | -2 | 16 | Nc1ncnc2c1ncn2[C@@H]1O[C@H](COC(=O)N2CCC(Cc3ccc(F)cc3)C2)[C@@H](O)[C@H]1O (some centres unmarked) [Compound C66]
12 | 8 | -1 | 3 | 0 | 1 | -3 | 0 | 8 | 4 | 4 | 1 | 1 | 1 | 6 | N#CCCN1CCN(C(=O)OC[C@H]2O[C@@H](n3cnc4c(N)ncnc43)[C@H](O)[C@@H]2O)CC1 [Compound C70]
13 | 4 | 20 | -3 | -5 | 0 | -7 | -13 | 17 | 2 | 8 | 0 | 0 | 1 | -1 | CN(C)CCNC(=O)OC[C@H]1O[C@@H](n2cnc3c(N)ncnc32)[C@H](O)[C@@H]1O [Compound C85]
